Reference: US11986493B2 (University of Pittsburgh—Of the Commonwealth System of …, priority 2013, dated 2024)

Legend:
[1] = test system: subjects with pulmonary hypertension (WHO group I PAH, WHO group III PH); experiment: Right heart catheterization: right heart/pulmonary artery hemodynamics, thermodilution cardiac output, PVR and SVR after inhaled NO and nebulized nitrite; type: in vivo, human
Experimental: A total of 6 subjects with a confirmed diagnosis of pulmonary hypertension and meeting all inclusion/exclusion criteria were enrolled in the study which entailed a single right heart catheterization. The study population consisted of subjects with WHO group I PAH (n=3) and subjects with WHO group III PH (n=3) which received the dose escalation paradigm:
(§1) During the study right heart/pulmonary artery hemodynamics were measured as well as noninvasive systemic blood pressure monitoring and simultaneous RV echocardiography. Subjects were tested for the changes in pulmonary vascular resistance (PVR) measured by right heart catheterization and using thermodilution cardiac output measurement at time zero, at times 15, 30 and 45 minutes after completion of each nebulization dose.
Following right heart catheterization, the patient was stabilized for 20 minutes. Baseline blood collections and hemodynamic measurements were performed, followed by treatment with 40 ppm inhaled NO gas for […] with repeat hemodynamic measurements performed.
After stopping inhaled NO gas, a single dose of sildenafil was given if patients were on background sildenafil therapy at previously prescribed doses. 45-minutes after sildenafil dose baseline hemodynamics were performed.
Subjects were monitored carefully during and after the study treatment.
The study was conducted at the 3rd FL Catheterization Laboratory at Presbyterian Hospital of the University of Pittsburgh Medical Center (UPMC). Baseline vasoreactivity was recorded after Inhaled NO at 40 ppm for […]. […] Subjects were instructed to breathe as calmly, and deeply as possible until no more mist was formed in the nebulizer chamber. Subjects were also instructed to hold their breath for approximately 10 seconds after inhalation to allow the study drug to reach deep into the lungs.

[2] = test system: subjects with pulmonary hypertension; experiment: Oxygen saturation by pulse oximeter and methemoglobin by continuous percutaneous co-oximetry; type: in vivo, human; set-up: Syst O2sat: unit not given here
Experimental: Oxygen saturation measured by pulse oximeter and methemoglobin levels monitored by continuous percutaneous co-oximetry prior to dose administration and through 4 hours post-dose were monitored closely.

[3] = test system: subjects with pulmonary hypertension; experiment: Systemic blood pressure (noninvasive) and heart rate monitoring during the study
Experimental: as §1
Subjects were monitored closely for changes in blood pressure during the study. […] Subjects were continued to be monitored closely every 10 minutes for 2 hours.

[4] = 40 ppm inhaled NO, some patients (non-responsive to inhaled NO)

nitric oxide [iNO, reference compound]
reduction in PCWP from baseline [1, 4]: did not show a meaningful reduction | reduction in RA from baseline [1, 4]: did not show a meaningful reduction | CI ([1]; Patient 1, 40 ppm inhaled NO): 2.54 | CO ([1]; Patient 1, 40 ppm inhaled NO): 4.91 | PA sat ([1]; Patient 1, 40 ppm inhaled NO): 68 | PAD ([1]; Patient 1, 40 ppm inhaled NO): 25 | PAS ([1]; Patient 1, 40 ppm inhaled NO): 73 | PCWP ([1]; Patient 1, 40 ppm inhaled NO): 14 | PVR ([1]; Patient 1, 40 ppm inhaled NO): 5.50 | PVR/SVR ([1]; Patient 1, 40 ppm inhaled NO): 0.40 | RA ([1]; Patient 1, 40 ppm inhaled NO): 12 | SVR ([1]; Patient 1, 40 ppm inhaled NO): 13.78 | TPR ([1]; Patient 1, 40 ppm inhaled NO): 8.35 | mPAP ([1]; Patient 1, 40 ppm inhaled NO): 41.01 | CI ([1]; Patient 2, 40 ppm inhaled NO): 3.47 | CO ([1]; Patient 2, 40 ppm inhaled NO): 6.7 | PA sat ([1]; Patient 2, 40 ppm inhaled NO): 68 | PAD ([1]; Patient 2, 40 ppm inhaled NO): 13 | PAS ([1]; Patient 2, 40 ppm inhaled NO): 45 | PCWP ([1]; Patient 2, 40 ppm inhaled NO): 10 | PVR ([1]; Patient 2, 40 ppm inhaled NO): 2.04 | PVR/SVR ([1]; Patient 2, 40 ppm inhaled NO): 0.17 | RA ([1]; Patient 2, 40 ppm inhaled NO): 7 | SVR ([1]; Patient 2, 40 ppm inhaled NO): 11.99 | TPR ([1]; Patient 2, 40 ppm inhaled NO): 3.53 | mPAP ([1]; Patient 2, 40 ppm inhaled NO): 23.67 | CI ([1]; Patient 3, 40 ppm inhaled NO): 3.14 | CO ([1]; Patient 3, 40 ppm inhaled NO): 6.53 | PAD ([1]; Patient 3, 40 ppm inhaled NO): 20 | PAS ([1]; Patient 3, 40 ppm inhaled NO): 69 | PCWP ([1]; Patient 3, 40 ppm inhaled NO): 14 | PVR ([1]; Patient 3, 40 ppm inhaled NO): 3.42 | PVR/SVR ([1]; Patient 3, 40 ppm inhaled NO): 0.35 | RA ([1]; Patient 3, 40 ppm inhaled NO): 11 | SVR ([1]; Patient 3, 40 ppm inhaled NO): 9.65 | TPR ([1]; Patient 3, 40 ppm inhaled NO): 5.56 | mPAP ([1]; Patient 3, 40 ppm inhaled NO): 36.34 | CI ([1]; Patient 4, 40 ppm inhaled NO): 2.98 | CO ([1]; Patient 4, 40 ppm inhaled NO): 5.21 | PAD ([1]; Patient 4, 40 ppm inhaled NO): 21 | PAS ([1]; Patient 4, 40 ppm inhaled NO): 63 | PCWP ([1]; Patient 4, 40 ppm inhaled NO): 7 | PVR ([1]; Patient 4, 40 ppm inhaled NO): 5.38 | PVR/SVR ([1]; Patient 4, 40 ppm inhaled NO): 0.29 | RA ([1]; Patient 4, 40 ppm inhaled NO): 3 | SVR ([1]; Patient 4, 40 ppm inhaled NO): 18.30 | TPR ([1]; Patient 4, 40 ppm inhaled NO): 6.72 | mPAP ([1]; Patient 4, 40 ppm inhaled NO): 35.00 | CI ([1]; Patient 5, 40 ppm inhaled NO): 2.85 | CO ([1]; Patient 5, 40 ppm inhaled NO): 5.05 | PAD ([1]; Patient 5, 40 ppm inhaled NO): 17 | PAS ([1]; Patient 5, 40 ppm inhaled NO): 64 | PCWP ([1]; Patient 5, 40 ppm inhaled NO): 14 | PVR ([1]; Patient 5, 40 ppm inhaled NO): 3.70 | PVR/SVR ([1]; Patient 5, 40 ppm inhaled NO): 0.30 | RA ([1]; Patient 5, 40 ppm inhaled NO): 5 | RVD ([1]; Patient 5, 40 ppm inhaled NO): 5 | RVS ([1]; Patient 5, 40 ppm inhaled NO): 66 | SVR ([1]; Patient 5, 40 ppm inhaled NO): 12.15 | TPR ([1]; Patient 5, 40 ppm inhaled NO): 6.47 | mPAP ([1]; Patient 5, 40 ppm inhaled NO): 32.67 | CI ([1]; Patient 6, iNO): 3.1658 | CO ([1]; Patient 6, iNO): 6.3 | PAD ([1]; Patient 6, iNO): 27 | PAS ([1]; Patient 6, iNO): 58 | PCWP ([1]; Patient 6, iNO): 13 | PVR ([1]; Patient 6, iNO): 4.3924 | PVR/SVR ([1]; Patient 6, iNO): 0.3132 | RA ([1]; Patient 6, iNO): 12 | RVD ([1]; Patient 6, iNO): 12 | RVS ([1]; Patient 6, iNO): 58 | SVR ([1]; Patient 6, iNO): 14.023 | TPR ([1]; Patient 6, iNO): 6.4559 | mPAP ([1]; Patient 6, iNO): 40.672 | PCWP compared to baseline ([1]; after inhalation of NO, in some instances): increased | Syst O2sat ([2]; Patient 1, 40 ppm inhaled NO): 100 | Syst O2sat ([2]; Patient 2, 40 ppm inhaled NO): 100 | Syst O2sat ([2]; Patient 3, 40 ppm inhaled NO): 99 | Syst O2sat ([2]; Patient 4, 40 ppm inhaled NO): 100 | Syst O2sat ([2]; Patient 5, 40 ppm inhaled NO): 100 | Syst O2sat ([2]; Patient 6, iNO): 100 | HR ([3]; Patient 1, 40 ppm inhaled NO): 84 | Systemic DBP ([3]; Patient 1, 40 ppm inhaled NO): 66 | Systemic SBP ([3]; Patient 1, 40 ppm inhaled NO): 107 | Systemic mBP ([3]; Patient 1, 40 ppm inhaled NO): 79.68 | HR ([3]; Patient 2, 40 ppm inhaled NO): 71 | Systemic DBP ([3]; Patient 2, 40 ppm inhaled NO): 69 | Systemic SBP ([3]; Patient 2, 40 ppm inhaled NO): 124 | Systemic mBP ([3]; Patient 2, 40 ppm inhaled NO): 87.34 | HR ([3]; Patient 3, 40 ppm inhaled NO): 75 | Systemic DBP ([3]; Patient 3, 40 ppm inhaled NO): 57 | Systemic SBP ([3]; Patient 3, 40 ppm inhaled NO): 108 | Systemic mBP ([3]; Patient 3, 40 ppm inhaled NO): 74.01 | HR ([3]; Patient 4, 40 ppm inhaled NO): 66 | Systemic DBP ([3]; Patient 4, 40 ppm inhaled NO): 76 | Systemic SBP ([3]; Patient 4, 40 ppm inhaled NO): 143 | Systemic mBP ([3]; Patient 4, 40 ppm inhaled NO): 98.35 | HR ([3]; Patient 5, 40 ppm inhaled NO): 56 | Systemic DBP ([3]; Patient 5, 40 ppm inhaled NO): 51 | Systemic SBP ([3]; Patient 5, 40 ppm inhaled NO): 97 | Systemic mBP ([3]; Patient 5, 40 ppm inhaled NO): 65.34 | HR ([3]; Patient 6, iNO): 100 | Systemic DBP ([3]; Patient 6, iNO): 77 | Systemic SBP ([3]; Patient 6, iNO): 147 | Systemic mBP ([3]; Patient 6, iNO): 100.346
